Experimental data reported in patent publication US7432276B2, “ABCA1 elevating compounds” (CV Therapeutics, Inc., priority 2005, dated 2008).

These compounds were tested on ABCA1 mRNA (assay: ABCA1 mRNA induction in THP-1 cells, QuantiGene branched DNA assay). Conditions: 10 μM test compound, 18-20 hours.
Type: cell-based
Procedure, shortened: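 THP-1 cells, grown to subconfluence, treated with compounds at 10 and 3 μM in DMEM/BSA for 18–20 h. Lysates hybridized with ABCA1-specific probe 16–18 h at 53 °C; QuantiGene branched DNA luminescence gives fold increase over DMSO.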

| Structure (SMILES) | ABCA1 Induction Fold Increase over DMSO Vehicle [FOLD INCREASE] |
| --- | --- |
| COc1ccc(Br)c2c1OC[C@@H]1[C@H]2Nc2ccc(C(O)(C(F)(F)F)C(F)(F)F)cc2C1(C)C [Number 64, 2-((6aS,12aR)-1-bromo-4-methoxy-7,7-dimethyl(7,12,12a,6a-tetrahydrochromano[4,3-b]quinolin-9-yl))-1,1,1,3,3,3-hexafluoropropan-2-ol] | 2.5 |
| Cc1cccc2c1OCC1C2Nc2ccccc2C1(C)C (stereo not shown) [Number 31, 4,7,7-trimethyl-7,12,12a,6a-tetrahydrochromano[4,3-b]quinoline] | 5.5 |
| COC(=O)c1cc2c(cc1OC)NC1c3cc(Br)ccc3OCC1C2(C)C (stereo not shown) [Number 6, methyl 2-bromo-10-methoxy-7,7-dimethyl-7,12,12a,6a-tetrahydrochromano[4,3-b]quinoline-9-carboxylate] | 1.6 |
| COc1cccc2c1[C@H]1Nc3ccc(Cc4nnn[nH]4)cc3C(C)(C)[C@H]1CO2 [Number 84, (12aS,6aR)-1-methoxy-7,7-dimethyl-9-(1,2,3,4-tetraazol-5-ylmethyl)-7,12,12a,6a-tetrahydrochromano[4,3-b]quinoline] | 8.6 |
| COc1cccc2c1OC[C@@H]1[C@@H]2Nc2ccc(C(=O)O)cc2C1(C)C [Number 49, (12aS,6aS)-4-methoxy-7,7-dimethyl-7,12,12a,6a-tetrahydrochromano[4,3-b]quinoline-9-carboxylic acid] | 1.7 |
| CCOP(=O)(Cc1ccc2c(c1)C(C)(C)C1COc3cccc(OC)c3C1N2)OCC (stereo not shown) [Number 90, diethoxy[(1-methoxy-7,7-dimethyl(7,12,12a,6a-tetrahydrochromano[4,3-b]quinolin-9-yl))methyl]phosphino-1-one] | 7.6 |
| COc1cccc2c1[C@H]1Nc3ccc(-c4ccc(CO)cc4)cc3C(C)(C)[C@@H]1CO2 [Number 98, [4-((12aS,6aS)-1-methoxy-7,7-dimethyl-7,12,12a,6a-tetrahydrochromano[4,3-b]quinolin-9-yl)phenyl]methan-1-ol] | 5.2 |
| COc1ccc(Br)c2c1OCC1C2Nc2ccc(-c3cnco3)cc2C1(C)C (stereo not shown) [Number 79, 1-bromo-4-methoxy-7,7-dimethyl-9-(1,3-oxazol-5-yl)-7,12,12a,6a-tetrahydrochromano[4,3-b]quinoline] | 4.1 |
| Cc1cccc2c1OCC1C2Nc2ccc(C(O)(C(F)(F)F)C(F)(F)F)cc2C1(C)C (stereo not shown) [Number 18, 1,1,1,3,3,3-hexafluoro-2-(4,7,7-trimethyl(7,12,12a,6a-tetrahydrochromano[4,3-b]quinolin-9-yl))propan-2-ol] | 5.3 |
| COc1cccc2c1OC[C@H]1[C@@H]2Nc2ccc(C(=O)N3CCS(=O)(=O)CC3)cc2C1(C)C [Number 129, ((6aR,12aS)-6a,7,12,12a-tetrahydro-4-methoxy-7,7-dimethyl-6H-chromeno[4,3-b]quinolin-9-yl)(1,1-dione-1,4-thiazaperhydroin-yl)methanone] | 4.3 |
| COc1cccc2c1OC[C@@H]1[C@@H]2Nc2ccc(Br)cc2C1(C)C [Number 87, (12aS,6aS)-9-bromo-4-methoxy-7,7-dimethyl-7,12,12a,6a-tetrahydrochromano[4,3-b]quinoline] | 7.4 |
| CC(C)Oc1ccc2c(c1)C(C)(C)C1COc3c(F)cccc3[C@H]1N2 (stereo partly drawn) [Number 103, (12aS)-4-fluoro-7,7-dimethyl-9-(methylethoxy)-7,12,12a,6a-tetrahydrochromano[4,3-b]quinoline] | 4.0 |
| COc1cccc2c1[C@H]1Nc3ccc(N4CCS(=O)(=O)CC4)cc3C(C)(C)[C@H]1CO2 [Number 72, 4-((12aS,6aR)-1-methoxy-7,7-dimethyl-7,12,12a,6a-tetrahydrochromano[4,3-b]quinolin-9-yl)-1,4-thiazaperhydroine-1,1-dione] | 8.4 |
| COc1cccc2c1OC[C@@H]1[C@H]2Nc2ccc(C(C)C)cc2C1(C)C [Number 46, (6aS,12aR)-4-methoxy-7,7-dimethyl-9-(methylethyl)-7,12,12a,6a-tetrahydrochromano[4,3-b]quinoline] | 4.2 |
| CC(C)=CCOC(=O)c1ccc2c(c1)C1Nc3ccc(B(O)O)cc3C(C)(C)C1CO2 (stereo not shown) [Number 15, 3-methylbut-2-enyl 9-(dihydroxyboramethyl)-7,7-dimethyl-7,12,12a,6a-tetrahydrochromano[4,3-b]quinoline-2-carboxylate] | 1.8 |
| COc1cccc2c1OC[C@H]1[C@@H]2Nc2ccc(Br)cc2C1(C)C [Number 86, (12aS,6aR)-9-bromo-4-methoxy-7,7-dimethyl-7,12,12a,6a-tetrahydrochromano[4,3-b]quinoline] | 8.4 |
| CC1(C)c2cc(C(O)(C(F)(F)F)C(F)(F)F)ccc2NC2c3cc(Br)ccc3OCC21 (stereo not shown) [Number 1, 2-(2-bromo-7,7-dimethyl(7,12,12a,6a-tetrahydrochromano[4,3-b]quinolin-9-yl))-1,1,1,3,3,3-hexafluoropropan-2-ol] | 4.4 |
| CCOC(=O)c1ccc(-c2ccc3c(c2)C(C)(C)[C@H]2COc4cccc(OC)c4[C@H]2N3)cc1 (relative stereo) [Number 107, ethyl 4-((12aS,6aR)-1-methoxy-7,7-dimethyl-7,12,12a,6a-tetrahydrochromano[4,3-b]quinolin-9-yl)benzoate] | 2.9 |
| CCOc1ccc2c(c1)C(C)(C)[C@H]1COc3cccc(OC)c3[C@H]1N2 [Number 56, (12aS,6aR)-9-ethoxy-1-methoxy-7,7-dimethyl-7,12,12a,6a-tetrahydrochromano[4,3-b]quinoline] | 4.8 |
| COc1cccc2c1OCC1C2Nc2ccc(CC(=O)O)cc2C1(C)C (stereo not shown) [Number 26, 2-(4-methoxy-7,7-dimethyl-7,12,12a,6a-tetrahydrochromano[4,3-b]quinolin-9-yl)acetic acid] | 5.0 |

Same assay, conditions: Homo sapiens, 10 μM test compound, 18-20 hours, read-out: ABCA1 Induction Fold Increase over DMSO Vehicle

| Structure (SMILES) | fold induction at 10 µM |
| --- | --- |
| COc1cc(Br)cc2c1OC[C@H]1[C@@H]2Nc2ccc(-c3nnn[nH]3)cc2C1(C)C [Number 164, (6aR,12aS)-2-bromo-6a,7,12,12a-tetrahydro-4-methoxy-7,7-dimethyl-9-(1H-tetrazol-5-yl)-6H-chromeno[4,3-b]quinoline] | 5.6 |
| COc1cccc2c1[C@H]1Nc3ccc(S(=O)(=O)CC(=O)O)cc3C(C)(C)[C@H]1CO2 [Number 124, 2-((6aR,12aS)-6a,7,12,12a-tetrahydro-1-methoxy-7,7-dimethyl-6H-chromeno[4,3-b]quinolin-9-ylsulfonyl)acetic acid] | 3.3 |
| COc1cc(-c2cn[nH]c2)cc2c1OC[C@@H]1[C@@H]2Nc2ccc(-c3cnco3)cc2C1(C)C [Number 160, (6aS,12aS)-6a,7,12,12a-tetrahydro-4-methoxy-7,7-dimethyl-9-(oxazol-5-yl)-2-(1H-pyrazol-4-yl)-6H-chromeno[4,3-b]quinoline] | 4.7 |
| CN(C)C(=O)CCc1ccc2c(c1)C1Nc3ccc(C(O)(C(F)(F)F)C(F)(F)F)cc3C(C)(C)C1CO2 (stereo not shown) [Number 39, 3-{7,7-dimethyl-9-[2,2,2-trifluoro-1-hydroxy-1-(trifluoromethyl)ethyl](7,12,12a,6a-tetrahydrochromano[4,3-b]quinolin-2-yl)}-N,N-dimethylpropanamide] | 3.4 |
| CCOC(=O)CN1c2ccccc2C(C)(C)[C@H]2COc3cccc(OC)c3[C@H]21 [Number 157, ethyl 2-((6aR,12aS)-6a,7-dihydro-1-methoxy-7,7-dimethyl-6H-chromeno[4,3-b]quinolin-12(12aH)-yl)acetate] | 3.3 |
| COc1ccc2c(c1)C(C)(C)[C@H]1COc3cccc(OC)c3[C@H]1N2Cc1ccccc1 [Number 158, (6aR,12aS)-12-benzyl-6a,7,12,12a-tetrahydro-1,9-dimethoxy-7,7-dimethyl-6H-chromeno[4,3-b]quinoline] | 9.2 |
| COc1cc(I)cc2c1OC[C@@H]1[C@@H]2Nc2ccc(-n3ncc(C(=O)O)c3C)cc2C1(C)C [Number 177, 1-((6aS,12aS)-6a,7,12,12a-tetrahydro-2-iodo-4-methoxy-7,7-dimethyl-6H-chromeno[4,3-b]quinolin-9-yl)-5-methyl-1H-pyrazole-4-carboxylic acid] | 2.6 |
| CCOP(=O)(Cc1ccc2c(c1)C(C)(C)[C@H]1COc3c(OC)cc(Br)cc3[C@H]1N2)OCC [Number 168, diethyl ((6aR,12aS)-2-bromo-6a,7,12,12a-tetrahydro-4-methoxy-7,7-dimethyl-6H-chromeno[4,3-b]quinolin-9-yl)methylphosphonate] | 4 |
| CCS(=O)(=O)N1CCN(C(=O)c2ccc3c(c2)C(C)(C)[C@H]2COc4cccc(OC)c4[C@H]2N3)CC1 [Number 132, ((6aR,12aS)-1-methoxy-6a,7,12,12a-tetrahydro-7,7-dimethyl-6H-chromeno[4,3-b]quinolin-9-yl)(4-ethanesulfonylpiperazin-1-yl)methanone] | 4.3 |
| CCOP(=O)(Cc1ccc2c(c1)C(C)(C)[C@@H]1COc3c(OC)cc(Br)cc3[C@H]1N2)OCC [Number 179, diethyl((6aS,12aS)-2-bromo-6a,7,12,12a-tetrahydro-4-methoxy-7,7-dimethyl-6H-chromeno[4,3-b]quinolin-9-yl)methylphosphonate] | 5.2 |
| COc1cccc2c1[C@@H]1[C@@H](CO2)C(C)(C)c2ccccc2N1CC(=O)O [Number 156, 2-((6aS,12aS)-6a,7-dihydro-1-methoxy-7,7-dimethyl-6H-chromeno[4,3-b]quinolin-12(12aH)-yl)acetic acid] | 7.6 |
